Article PMC3973950, “Synthesis of 5-arylidine amino-1,3,4-thiadiazol-2-[(N-substituted benzyol)]sulphonamides endowed with potent antioxidants and anticancer activity induces growth inhibition in HEK293, BT474 and NCI-H226 cells” (Medicinal Chemistry Research, 2013)

Tests used:
[1] = In vitro cytotoxicity by MTT assay, HEK 293; assay type: cell-based, human; details: human, HEK 293 cells, read-out: % cytotoxicity (100 − % cell survival) of HEK 293 cell line
Experimental: (§1) The cancer cell line cultures of HEK 293 ([…]), BT474 (breast cancer cell line) and NCI-H226 (lung cancer) were obtained from Pasteur Institute of India, Coonoor, India, and were cultured in RPMI-1640 and 10 % heat-[…] New born calf serum with antibiotics [penicillin ([…]), streptomycin (100 μg/mL) and amphotericin B (25 μg/mL)]. The cells were maintained at 37 °C in a humidified atmosphere with 5 % CO2 and were subcultured twice a week.
(§2) The monolayer cell culture (100 μL) was trypsinized, and the cell count was adjusted to […] using medium containing 10 % new born calf serum. To each well of the 96-well microtitre plate, the diluted cell suspension (approximately 10,000 cells) (0.1 mL) was added and kept for 24 h in incubator at 37 °C in 5 % CO2 atmosphere for cell monolayer formation. After 24 h, when a partial monolayer was formed at the bottom of the well, the supernatant was flicked off, the monolayer was washed once, and different drugs, i.e. synthesized compounds (100 μL), were added to the cells in microtitre plates. The plates were then incubated at 37 °C for 3 days in 5 % CO2 atmosphere, and microscopic examination was carried out and observations recorded every 24 h. After 72 h, the sample solution in the wells was flicked off; MTT dye ([…]) was added to each well; plates were gently shaken and incubated for 4 h at 37 °C in 5 % CO2 incubator. The supernatant was removed and propanol (50 μL) was added; the plates were gently shaken to solubilize the formed formazan. The absorbance was measured using a microplate reader at a wavelength of 490 nm (Edmondson et al., [1988]; Prasad et al., [2005]; Chiruvella et al., [2008]; Chang et al., [2007]).

[2] = test system: BT474 (breast cancer cell line); test: In vitro cytotoxicity by MTT assay, BT474; assay type: cell-based; details: Homo sapiens, 72 h; for cytotoxicity at 0.005 µM: BT-474, 0.005 μM; for cytotoxicity at 0.005 µM / cytotoxicity at 0.015 µM / cytotoxicity at 0.045 µM / cytotoxicity at 0.13 µM / cytotoxicity at 0.41 µM / cytotoxicity at 1.23 µM / cytotoxicity at 3.7 µM / cytotoxicity at 11.11 µM / cytotoxicity at 33.33 µM / cytotoxicity at 100 µM: read-out: % cytotoxicity (100 − % cell survival) of BT474 cell line; for cytotoxicity at 0.015 µM: BT-474, 0.015 μM; for cytotoxicity at 0.045 µM: BT-474, 0.045 μM; for cytotoxicity at 0.13 µM: BT-474, 0.13 μM; for cytotoxicity at 0.41 µM: BT-474, 0.41 μM; for cytotoxicity at 1.23 µM: BT-474, 1.23 μM; for cytotoxicity at 3.7 µM: BT-474, 3.7 μM; for cytotoxicity at 11.11 µM: BT-474, 11.11 μM; for cytotoxicity at 33.33 µM: BT-474, 33.33 μM; for cytotoxicity at 100 µM: BT-474, 100 μM
Experimental: as §1, §2

[3] = In vitro cytotoxicity by MTT assay, NCI-H226; assay type: cell-based; details: human, NCI-H226 lung cancer cells, 0.015 μM, read-out: % Cytotoxicity (100 − % cell survival) of NCI-H226 cell line
Experimental: as §1, §2

[4] = test system: NCI-H226 (lung cancer cell line); test: In vitro cytotoxicity by MTT assay, NCI-H226; assay type: cell-based; details: Homo sapiens, 72 h, read-out: % Cytotoxicity (100 − % cell survival) of NCI-H226 cell line; for cytotoxicity at 0.005 µM: NCI-H226, 0.005 μM; for cytotoxicity at 0.045 µM: NCI-H226, 0.045 μM; for cytotoxicity at 0.13 µM: NCI-H226, 0.13 μM; for cytotoxicity at 0.41 µM: NCI-H226, 0.41 μM; for cytotoxicity at 1.23 µM: NCI-H226, 1.23 μM; for cytotoxicity at 3.7 µM: NCI-H226, 3.7 μM; for cytotoxicity at 11.11 µM: NCI-H226, 11.11 μM; for cytotoxicity at 33.33 µM: NCI-H226, 33.33 μM; for cytotoxicity at 100 µM: NCI-H226, 100 μM
Experimental: as §1, §2

| Compound | cytotoxicity at 72 h, 0.005 µM [1] | cytotoxicity at 72 h, 0.015 µM [1] | cytotoxicity at 72 h, 0.045 µM [1] | cytotoxicity at 72 h, 0.13 µM [1] | cytotoxicity at 72 h, 0.41 µM [1] | cytotoxicity at 72 h, 1.23 µM [1] | cytotoxicity at 72 h, 3.7 µM [1] | cytotoxicity at 72 h, 11.11 µM [1] | cytotoxicity at 72 h, 33.33 µM [1] | cytotoxicity at 72 h, 100 µM [1] | cytotoxicity at 0.005 µM [2] | cytotoxicity at 0.015 µM [2] | cytotoxicity at 0.045 µM [2] | cytotoxicity at 0.13 µM [2] | cytotoxicity at 0.41 µM [2] | cytotoxicity at 1.23 µM [2] | cytotoxicity at 3.7 µM [2] | cytotoxicity at 11.11 µM [2] | cytotoxicity at 33.33 µM [2] | cytotoxicity at 100 µM [2] | further results |
| --- | --- | --- | --- | --- | --- | --- | --- | --- | --- | --- | --- | --- | --- | --- | --- | --- | --- | --- | --- | --- | --- |
| Nc1nnc(S(=O)(=O)NC(=O)c2ccccc2O)s1 [Compound 4d] | 37.3% | 38.3% | 39.4% | 40.5% | 42.1% | 42.4% | 44.6% | 47% | 47.6% | 48.1% | 23.2% | 24.2% | 25.3% | 26.2% | 26.8% | 27.1% | 28.1% | 29.4% | 30.3% | 32.1% | cytotoxicity at 72 h, 0.015 µM [3]: 35.1%; cytotoxicity at 0.005 µM [4]: 34.2%; cytotoxicity at 0.045 µM [4]: 35.2%; cytotoxicity at 0.13 µM [4]: 36.3%; cytotoxicity at 0.41 µM [4]: 37.3%; cytotoxicity at 1.23 µM [4]: 38%; cytotoxicity at 3.7 µM [4]: 38.3%; cytotoxicity at 11.11 µM [4]: 39.7%; cytotoxicity at 33.33 µM [4]: 42.1%; cytotoxicity at 100 µM [4]: 42.6% |
| Nc1nnc(S(=O)(=O)NC(=O)c2ccc([N+](=O)[O-])cc2)s1 [Compound 4e] | 30.6% | 31.6% | 34.1% | 34.8% | 35.4% | 37.1% | 38.9% | 39.1% | 40% | 40.2% | 30.9% | 31% | 31.8% | 32.3% | 33.1% | 35.7% | 37% | 37.2% | 38.9% | 40.4% | cytotoxicity at 72 h, 0.015 µM [3]: 28.1%; cytotoxicity at 0.005 µM [4]: 27.3%; cytotoxicity at 0.045 µM [4]: 28.9%; cytotoxicity at 0.13 µM [4]: 29.6%; cytotoxicity at 0.41 µM [4]: 29.9%; cytotoxicity at 1.23 µM [4]: 30.6%; cytotoxicity at 3.7 µM [4]: 31.3%; cytotoxicity at 11.11 µM [4]: 32.2%; cytotoxicity at 33.33 µM [4]: 33.3%; cytotoxicity at 100 µM [4]: 34.6% |
| Nc1nnc(S(=O)(=O)NC(=O)c2cccc([N+](=O)[O-])c2)s1 [Compound 4f] | 24.3% | 26.4% | 28.1% | 28.4% | 28.9% | 29.2% | 30% | 30.7% | 31.2% | 32% | 37.6% | 39% | 41.3% | 43.8% | 45.3% | 48.5% | 50.1% | 52.4% | 55.3% | 59.3% | CC50 ([2]; BT-474, BT474, concentration at which 50 % of the cells are dead, read-out: CTC50 (cytotoxicity concentration)): 1560 nM; cytotoxicity at 72 h, 0.015 µM [3]: 38.6%; cytotoxicity at 0.005 µM [4]: 37.2%; cytotoxicity at 0.045 µM [4]: 39.7%; cytotoxicity at 0.13 µM [4]: 41.6%; cytotoxicity at 0.41 µM [4]: 42.9%; cytotoxicity at 1.23 µM [4]: 45.8%; cytotoxicity at 3.7 µM [4]: 46.5%; cytotoxicity at 11.11 µM [4]: 48.3%; cytotoxicity at 33.33 µM [4]: 50.1%; cytotoxicity at 100 µM [4]: 52.9% |
